# Measured values as given in patent US12649750B2, “Macrocyclic compounds, compositions, and methods of using thereof” (Sionna Therapeutics Inc., priority 2022, dated 2026).
# Target: T1, NBD1 (Homo sapiens, UniProt P13569)
# T1 construct: Purified recombinant NBD1 was produced using previously described methods; made in house
# Experiment: Aggregation analysis using differential static light scattering (DSLS), thermal stability of NBD1 (ΔTagg)
# Assay type: binding
# Conditions: ΔTagg versus DMSO control, NBD1 0.2 mg/ml
# Method in brief: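 Read-out is ΔTagg: the aggregation temperature, taken at the inflection of the light-scattering curve, less the average of DMSO control wells. Recombinant NBD1 (0.2 mg/ml, pH7.6 buffer containing 2 mM ATP) with test compound was heated at 1° C. per minute up to 70° C.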
# T1 sequence (P13569 423-646 limits assumed): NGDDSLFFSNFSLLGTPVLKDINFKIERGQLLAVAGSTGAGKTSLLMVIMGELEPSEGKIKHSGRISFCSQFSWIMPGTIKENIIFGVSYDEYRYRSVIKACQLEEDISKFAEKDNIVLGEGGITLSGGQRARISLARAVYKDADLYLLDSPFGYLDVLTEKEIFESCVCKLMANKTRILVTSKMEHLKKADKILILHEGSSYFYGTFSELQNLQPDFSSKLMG
row,Structure (SMILES),DSLS 3D (100 μM ΔT)
1,"Cn1nc2nc1-c1cc(ccn1)S(=O)(=O)c1c(F)c(F)c3[nH]ccc3c1CCS(=O)(=O)CC(C)(C)CCC[C@]2(C)c1cccc(CC(C)(C)C(=O)O)c1 [Compound 352, 3-[3-[(6R)-21,22-Difluoro-3,6,10,10-tetramethyl-12,12,24,24-tetraoxo-12λ6,24λ6-dithia-3,4,19,28,30-pentazapentacyclo[23.3.1.12,5.015,23.016,20]triaconta-1(29),2(30),4,15,17,20,22,25,27-nonaen-6-yl]phenyl]-2,2-dimethyl-propanoic Acid]",A (an ΔTagg value less than or equal to 5 °C is marked “A”)
2,"Cn1nc2nc1-c1cc(ccn1)Cc1c(F)cc3[nH]ccc3c1CCS(=O)(=O)CC(C)(C)CCC[C@]2(C)c1cccc(C[C@@H](O)CO)c1 [Compound 311, (2R)-3-[3-[(6R)-22-Fluoro-3,6,10,10-tetramethyl-12,12-dioxo-12λ6-thia-3,4,19,28,30-pentazapentacyclo[23.3.1.12,5.015,23.016,20]triaconta-1(29),2(30),4,15,17,20,22,25,27-nonaen-6-yl]phenyl]propane-1,2-diol]",A (an ΔTagg value less than or equal to 5 °C is marked “A”)
3,"C[C@H](Cc1cccc([C@@]2(C)CCCC(C)(C)CS(=O)(=O)CC(N(C)C)c3c(c(F)c(F)c4[nH]ccc34)Oc3ccc(F)c(c3)-c3nc2nn3C)c1)C(=O)N(C)C (single isomer, unassigned) [Compound 367A]",A (an ΔTagg value less than or equal to 5 °C is marked “A”)
4,C[C@@H](Cc1cccc([C@@]2(C)CCCC(C)(C)CS(=O)(=O)CCc3c[nH]c4cc(F)c(cc34)[S+]([O-])c3ccc(F)c(c3)-c3nc2nn3C)c1)C(=O)O (stereo partly drawn) [Compound 355],A (an ΔTagg value less than or equal to 5 °C is marked “A”)
5,"C[C@H](Cc1cccc([C@@]2(C)CCCC(C)(C)CS(=O)(=O)CCc3c(c(F)cc4[nH]ccc34)S(=O)(=O)c3ccnc(c3)-c3nc2nn3C)c1)C(=O)O [Compound 349, (2R)-3-[3-[(6R)-22-Fluoro-3,6,10,10-tetramethyl-12,12,24,24-tetraoxo-12λ6,24λ6-dithia-3,4,19,28,30-pentazapentacyclo[23.3.1.12,5.015,23.016,20]triaconta-1(29),2(30),4,15,17,20,22,25,27-nonaen-6-yl]phenyl]-2-methyl-propanoic Acid]",B (a value above 5 °C and less than or equal to 10 °C is marked “B”)
6,"C[C@H](Cc1cccc([C@@]2(C)CCCC(C)(C)CS(=O)(=O)CCc3c(c(F)cc4[nH]ccc34)Sc3cc(c(F)cc3C(=O)O)-c3nc2nn3C)c1)C(=O)O [Compound 378, (6R)-6-[3-[(2R)-2-Carboxypropyl]phenyl]-22,28-difluoro-3,6,10,10-tetramethyl-12,12-dioxo-12λ6,24-dithia-3,4,19,30-tetrazapentacyclo[23.3.1.12,5.015,23.016,20]triaconta-1(29),2(30),4,15,17,20,22,25,27-nonaene-26-carboxylic Acid]",A (an ΔTagg value less than or equal to 5 °C is marked “A”)
7,"C[C@H](Cc1cccc([C@@]2(C)CCCC(C)(C)CS(=O)(=O)CC(N)c3c(c(F)c(F)c4[nH]ccc34)Oc3ccc(F)c(c3)-c3nc2nn3C)c1)C(N)=O (single isomer, unassigned) [Compound 385B]",A (an ΔTagg value less than or equal to 5 °C is marked “A”)
8,"Cn1nc2nc1-c1cc(ccc1F)Oc1c(F)cc3[nH]ccc3c1CCS(=O)(=O)CC(C)(C)COCC2(C)c1cccc(CCC(=O)O)c1 (single isomer, unassigned) [Compound 89A, 3-[3-(22,28-difluoro-3,6,10,10-tetramethyl-12,12-dioxo-8,24-dioxa-12λ6-thia-3,4,19,30-tetrazapentacyclo[23.3.1.12,5.015,23.016,20]triaconta-1(29),2(30),4,15,17,20,22,25,27-nonaen-6-yl)phenyl]propanoic Acid]",C (a value greater than 10 °C and less than or equal to 25 °C is marked “C”)
9,"Cn1nc2nc1-c1cc(ccn1)[S+]([O-])c1c(F)c(F)c3[nH]ccc3c1CCS(=O)(=O)CC(C)(C)CCC[C@]2(C)c1cccc(CC2(C(=O)O)CC2)c1 (single isomer, unassigned) [Compound 309]",B (a value above 5 °C and less than or equal to 10 °C is marked “B”)
10,"C[C@H](Cc1cccc([C@@]2(C)CCCC(C)(C)CS(=O)(=O)CCc3c(c(F)c(F)c4[nH]ccc34)Oc3ccc(F)c(c3)-c3nc2nn3C)c1)C(=O)NS(=O)(=O)C1CC1 [Compound 328, (2R)—N-Cyclopropylsulfonyl-2-methyl-3-[3-[(6R)-21,22,28-trifluoro-3,6,10,10-tetramethyl-12,12-dioxo-24-oxa-12λ6-thia-3,4,19,30-tetrazapentacyclo[23.3.1.12,5.015,23.016,20]triaconta-1(29),2(30),4,15,17,20,22,25,27-nonaen-6-yl]phenyl]propenamide]",B (a value above 5 °C and less than or equal to 10 °C is marked “B”)
11,"C[C@@H](Cc1cccc([C@@]2(C)CCCC(C)(C)CS(=O)(=O)CCc3c(c(F)c(F)c4[nH]ncc34)Oc3ccc(F)c(c3)-c3nc2nn3C)c1)C(=O)O [Compound 382, (2S)-2-Methyl-3-[3-[(6R)-21,22,28-trifluoro-3,6,10,10-tetramethyl-12,12-dioxo-24-oxa-12λ6-thia-3,4,18,19,30-pentazapentacyclo[23.3.1.12,5.015,23.016,20]triaconta-1(29),2(30),4,15,17,20,22,25,27-nonaen-6-yl]phenyl]propanoic Acid]",B (a value above 5 °C and less than or equal to 10 °C is marked “B”)
12,"C[C@@H](Cc1cccc([C@@]2(C)CCCC(C)(C)CS(=O)(=O)CCc3c(c(F)cc4[nH]ccc34)S(=O)(=O)c3cccc(c3)-c3nc2nn3C)c1)C(=O)O [Compound 357, (2S)-3-[3-[(6R)-22-Fluoro-3,6,10,10-tetramethyl-12,12,24,24-tetraoxo-12λ6,24λ6-dithia-3,4,19,30-tetrazapentacyclo[23.3.1.12,5.015,23.016,20]triaconta-1(29),2(30),4,15,17,20,22,25,27-nonaen-6-yl]phenyl]-2-methyl-propanoic Acid]",B (a value above 5 °C and less than or equal to 10 °C is marked “B”)
13,"Cn1nc2nc1-c1cc(ccn1)[S+]([O-])c1c(F)cc3[nH]cc(CC(=O)O)c3c1CCS(=O)(=O)CC(C)(C)CCC[C@]2(C)c1ccccc1 (single isomer, unassigned) [Compound 365]",A (an ΔTagg value less than or equal to 5 °C is marked “A”)
14,"C[C@H](Cc1cccc([C@@]2(C)CCCC(C)(C)CS(=O)(=O)CCc3c(ncc4[nH]ccc34)Oc3ccc(F)c(c3)-c3nc2nn3C)c1)C(=O)O [Compound 356, (2R)-3-[3-[(6R)-28-Fluoro-3,6,10,10-tetramethyl-12,12-dioxo-24-oxa-12λ6-thia-3,4,19,22,30-pentazapentacyclo[23.3.1.12,5.015,23.016,20]triaconta-1(29),2(30),4,15,17,20,22,25,27-nonaen-6-yl]phenyl]-2-methyl-propanoic acid]",A (an ΔTagg value less than or equal to 5 °C is marked “A”)
15,"CN1CCS(=O)(=O)CCC(C)(c2cccc(CCC(=O)O)c2)c2cnc([nH]2)-c2cc(ccc2F)Oc2c(F)cc3[nH]ccc3c2CCC1=O (stereo not drawn) [Compound 39, 3-[3-(23,29-Difluoro-6,12-dimethyl-9,9,13-trioxo-25-oxa-9λ6-thia-3,12,20,31-tetrazapentacyclo[24.3.1.12,5.016,24.017,21]hentriaconta-1(30),2,4,16,18,21,23,26,28-nonaen-6-yl)phenyl]propanoic Acid]",B (a value above 5 °C and less than or equal to 10 °C is marked “B”)
16,"C[C@@H](Cc1cccc(C2(C)CCCC(C)(C)CS(=O)(=O)CCc3c(c(F)cc4[nH]ccc34)Sc3ccnc(c3)-c3nc2nn3C)n1)C(=O)O (single isomer, unassigned) [Compound 314B]",B (a value above 5 °C and less than or equal to 10 °C is marked “B”)
17,"CN1CCS(=O)(=O)CCC(C)(c2cccc(CCC(=O)O)c2)c2cnc([nH]2)-c2cc(ccc2F)Oc2c(F)cc3[nH]ccc3c2CC1=O (stereo not drawn) [Compound 38, 3-[3-(22,28-Difluoro-6,12-dimethyl-9,9,13-trioxo-24-oxa-9λ6-thia-3,12,19,30-tetrazapentacyclo[23.3.1.12,5.015,23.016,20]triaconta-1(29),2,4,15,17,20,22,25,27-nonaen-6-yl)phenyl]propanoic Acid]",C (a value greater than 10 °C and less than or equal to 25 °C is marked “C”)
18,"Cn1nc2nc1-c1cc(ccc1F)Oc1c(F)cc3[nH]ccc3c1CCS(=O)(=O)CC(C)(C)CCCC2(C)c1cccc(C(O)CO)c1 (single isomer, unassigned) [Compound 90A, 1-[3-(22,28-difluoro-3,6,10,10-tetramethyl-12,12-dioxo-24-oxa-12λ6-thia-3,4,19,30-tetrazapentacyclo[23.3.1.12,5.015,23.016,20]triaconta-1(29),2(30),4,15,17,20,22,25,27-nonaen-6-yl)phenyl]ethane-1,2-diol]",C (a value greater than 10 °C and less than or equal to 25 °C is marked “C”)
19,C[C@H](Cc1cccc([C@@]2(C)CCCC(C)(C)CS(=O)(=O)CCc3c(c(F)c(F)c4[nH]cc(Cl)c34)Oc3ccc(F)c(c3)-c3nc2nn3C)c1)C(=O)O [Compound 327],A (an ΔTagg value less than or equal to 5 °C is marked “A”)
20,"C[C@@H](Cc1cccc(C2(C)CCCC(C)(C)CS(=O)(=O)CCc3c(c(F)cc4[nH]ccc34)[S+]([O-])c3ccnc(c3)-c3nc2nn3C)n1)C(=O)O (single isomer, unassigned) [Compound 315C]",A (an ΔTagg value less than or equal to 5 °C is marked “A”)
21,"CNC(=O)[C@H](C)Cc1cccc([C@@]2(C)CCCC(C)(C)CS(=O)(=O)CC(NC)c3c(c(F)c(F)c4[nH]ccc34)Oc3ccc(F)c(c3)-c3nc2nn3C)c1 (single isomer, unassigned) [Compound 360B]",B (a value above 5 °C and less than or equal to 10 °C is marked “B”)
